These results are taken from US8034314B2, “Photoreactive compound specifically binding to calcium binding proteins” (priority 2004, dated 2011).

Assay [1] deals with Glutamate dehydrogenase. In words: Glutamate dehydrogenase activity. Type of assay: biochemical. To be noted: AzRu 100 μM; mean ± SEM. The text has this: (§1) Unlabelled ryanodine was obtained from Calbiochem. […] Ruthenium chloride was purchased from Aldrich.
Assay [2] has as its system glyceraldehyde 3-phosphate dehydrogenase. In words: GAP dehydrogenase activity. Type of assay: biochemical. The settings on record: AzRu 100 μM; mean ± SEM.
From the text: as §1

The test system of assay [3] is Ca2+-dependent proteins. Briefly: Activities of Ca2+-dependent proteins (summary of Table 1). To be noted: at ≦20 μM. The class given is biochemical.
Assay [4] deals with Alkaline phosphatase. The settings on record: AzRu 100 μM; mean ± SEM.
From the text: Aldolase, alkaline phosphatase, ATP, bovine liver catalase, choline oxidase, CM-cellulose, n-decane, glucose 6-phosphate dehydrogenase, glutamate dehydrogenase, glyceraldehyde 3-phosphate dehydrogenase, Hepes, yeast hexokinase, lactate dehydrogenase, leupeptin, luciferase, mannitol, horseradish peroxidase, PMSF, pyruvate kinase, soybean asolectin, sucrose, Tris and Triton X-100 were purchased from Sigma (St. Louis, Mo., USA). [^45Ca], [^103Ru] and [^3H]ryanodine were purchased from NEN® Life Science Products, Inc. (Boston, USA). Unlabelled ryanodine was obtained from Calbiochem. Sephadex LH-20 was purchased from Amersham Biosciences. n-Octyl-β-D-glucopyranoside (β-OG) was obtained from Bachem AG (Germany). Lauryl-(dimethyl)-amineoxide (LDAO) and ruthenium red (98% pure) were obtained from Fluka (Chemie, GmbH). Ruthenium chloride was purchased from Aldrich. Hydroxyapatite (Bio-Gel HTP) was purchased from Bio-Rad Laboratories (Hercules, Calif.) and Celite from Merck. Synthetic firefly D-luciferin reagent was purchased from Biosynth AG.
The test system of assay [5] is Succinate-cytochrome c oxido-reductase. In words: Electron transport from succinate to cytochrome c in mitochondria. Type of assay: biochemical, rat. The method, then: (§2) Sarcoplasmic reticulum (SR) membranes were prepared from rabbit fast twitch skeletal muscle as described by Saito [Saito et al.: J. Cell Biol. 99 (1984) 875-85]. Mitochondria were isolated from rat liver as described by us previously [Gincel D. et al.: Biochem J. 358 (2001) 147-55]. VDAC was purified by a method developed in our laboratory, using columns of hydroxyapatite and reactive red agarose [Gincel D. et al.: J. Bioenerget. Biomembr. 32 (2000) 571-83].
(§3) Ca^2+-accumulation in freshly prepared mitochondria (0.5 mg/ml) was assayed for 1 to 20 minutes at 30° C. in the presence of 225 mM mannitol, 75 mM sucrose, 120 μM CaCl2 (containing 3×10^4 cpm/nmol ^45Ca^2+), 5 mM HEPES/KOH pH 7.0, and 5 mM succinate with 0.1 mM Pi, or 4 mM MgCl2 with 3 mM ATP. The Ca^2+-uptake was terminated by rapid Millipore filtration, followed by a wash with 5 ml of 0.15 M KCl. The Ca^2+-accumulation in SR was determined as described previously [Shoshan-Barmatz V. & Shaineberg A.: Biochim. Biophys. Acta 1065 (1991) 82-8]. Electron transport from succinate to cytochrome c was described in above cited article [Gincel D. et al.: J. Bioenerget. Biomembr. 32 (2000) 571-83].
The effect of AzRu on mitochondrial process of electron transport from the donor succinate to the acceptor cytochrome c was characterized as described above. […]

Assay [6] deals with Lactate dehydrogenase. Briefly: Lactate dehydrogenase activity. The class given is biochemical. To be noted: AzRu 100 μM; mean ± SEM.
From the text: as §1

The target of assay [7] is T1, Aldolase (Oryctolagus cuniculus, UniProt P00883).
T1 construct: purchased Sigma
T1 sequence (P00883 2-364 limits assumed): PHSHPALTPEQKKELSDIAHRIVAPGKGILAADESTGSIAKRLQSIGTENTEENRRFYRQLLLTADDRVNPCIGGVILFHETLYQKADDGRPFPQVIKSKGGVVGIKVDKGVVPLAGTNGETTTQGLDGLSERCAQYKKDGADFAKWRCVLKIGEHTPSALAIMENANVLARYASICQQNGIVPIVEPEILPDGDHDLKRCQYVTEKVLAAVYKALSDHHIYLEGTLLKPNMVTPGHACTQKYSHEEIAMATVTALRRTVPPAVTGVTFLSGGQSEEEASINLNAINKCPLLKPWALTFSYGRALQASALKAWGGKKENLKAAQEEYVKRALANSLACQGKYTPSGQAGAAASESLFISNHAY
In words: Aldolase activity. The class given is biochemical. To be noted: AzRu 100 μM; mean ± SEM.
From the text: as §1

Assay [8] relates to Mg2+-dependent proteins and the Zn2+-sensitive KCNK0 channel. In words: Activities of Mg2+-dependent proteins and Zn2+-sensitive KCNK0 channel (summary of Table 1). The class given is biochemical. To be noted: at 100 μM.
For assay [9], the target named is K+ channel (KCKN0) (Drosophila melanogaster, UniProt Q94526). In words: K+ channel (KCKN0) activity. The class given is biochemical. The settings on record: AzRu 20 μM; mean ± SEM.
Sequence of K+ channel (KCKN0) (Q94526 whole entry): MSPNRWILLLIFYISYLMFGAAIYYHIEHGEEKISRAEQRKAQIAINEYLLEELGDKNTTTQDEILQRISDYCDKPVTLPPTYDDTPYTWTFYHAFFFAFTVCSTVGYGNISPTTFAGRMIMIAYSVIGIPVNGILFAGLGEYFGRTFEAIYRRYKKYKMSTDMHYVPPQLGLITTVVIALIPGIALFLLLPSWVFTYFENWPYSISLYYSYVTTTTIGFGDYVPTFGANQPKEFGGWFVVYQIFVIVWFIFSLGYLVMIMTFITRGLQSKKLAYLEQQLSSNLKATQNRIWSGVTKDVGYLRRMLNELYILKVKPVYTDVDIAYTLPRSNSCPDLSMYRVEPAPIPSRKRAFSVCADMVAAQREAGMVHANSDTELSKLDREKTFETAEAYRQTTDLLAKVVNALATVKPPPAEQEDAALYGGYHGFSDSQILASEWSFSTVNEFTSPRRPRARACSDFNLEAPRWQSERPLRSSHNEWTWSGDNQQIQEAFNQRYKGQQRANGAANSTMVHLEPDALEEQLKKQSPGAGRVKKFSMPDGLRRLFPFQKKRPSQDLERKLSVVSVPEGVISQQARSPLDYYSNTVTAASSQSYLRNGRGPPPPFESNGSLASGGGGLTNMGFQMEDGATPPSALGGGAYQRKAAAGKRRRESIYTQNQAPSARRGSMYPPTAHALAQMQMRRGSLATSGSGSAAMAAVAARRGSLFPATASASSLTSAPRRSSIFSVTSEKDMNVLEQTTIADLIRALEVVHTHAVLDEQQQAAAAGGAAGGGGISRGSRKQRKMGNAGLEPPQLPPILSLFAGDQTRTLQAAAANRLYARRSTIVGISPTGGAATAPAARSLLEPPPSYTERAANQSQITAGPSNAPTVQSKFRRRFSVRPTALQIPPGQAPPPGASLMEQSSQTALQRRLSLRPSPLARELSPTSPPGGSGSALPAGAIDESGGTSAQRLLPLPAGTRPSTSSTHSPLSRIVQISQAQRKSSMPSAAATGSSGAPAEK
Assay [10] concerns the target T2, Peroxidase (Armoracia rusticana, UniProt P00433).
T2 construct: purchased Sigma
In words: Peroxidase activity. The class given is biochemical, horseradish. The settings on record: AzRu 20 μM; mean ± SEM.
From the text: as §1

The target in assay [11] is T3, Ca2+-pump (SERCA) of skeletal muscle sarcoplasmic reticulum (Oryctolagus cuniculus, UniProt P04191).
T3 construct: Sarcoplasmic reticulum (SR) membranes were prepared from rabbit fast twitch skeletal muscle; from tissue; host or cells: rabbit fast twitch skeletal muscle SR membranes
T3 sequence (P04191 1-994 isoform P04191-2): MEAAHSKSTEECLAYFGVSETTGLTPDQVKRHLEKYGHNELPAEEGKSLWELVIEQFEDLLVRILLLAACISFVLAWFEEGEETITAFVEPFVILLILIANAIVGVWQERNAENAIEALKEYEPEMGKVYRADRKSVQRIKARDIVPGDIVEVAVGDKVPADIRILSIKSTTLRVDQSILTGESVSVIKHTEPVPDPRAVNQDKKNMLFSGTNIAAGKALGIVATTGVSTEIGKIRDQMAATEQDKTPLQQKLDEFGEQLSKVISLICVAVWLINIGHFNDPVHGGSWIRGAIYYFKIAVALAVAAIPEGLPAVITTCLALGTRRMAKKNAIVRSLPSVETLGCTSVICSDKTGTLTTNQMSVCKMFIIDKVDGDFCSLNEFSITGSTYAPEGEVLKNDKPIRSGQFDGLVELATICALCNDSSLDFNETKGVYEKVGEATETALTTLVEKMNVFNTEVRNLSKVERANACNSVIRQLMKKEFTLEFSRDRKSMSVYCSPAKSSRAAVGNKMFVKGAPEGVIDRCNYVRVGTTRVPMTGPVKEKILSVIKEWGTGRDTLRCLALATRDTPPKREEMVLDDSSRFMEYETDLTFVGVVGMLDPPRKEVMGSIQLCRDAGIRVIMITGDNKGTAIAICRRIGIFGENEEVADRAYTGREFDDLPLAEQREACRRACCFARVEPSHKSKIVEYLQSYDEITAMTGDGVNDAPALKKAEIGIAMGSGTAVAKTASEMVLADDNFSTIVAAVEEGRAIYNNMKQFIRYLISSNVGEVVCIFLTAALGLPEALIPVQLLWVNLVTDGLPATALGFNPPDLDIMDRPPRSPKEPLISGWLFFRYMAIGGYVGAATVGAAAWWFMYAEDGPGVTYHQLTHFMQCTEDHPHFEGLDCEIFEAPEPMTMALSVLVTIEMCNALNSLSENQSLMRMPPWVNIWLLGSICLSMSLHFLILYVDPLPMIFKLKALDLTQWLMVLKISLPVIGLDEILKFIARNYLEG
In words: Ca2+ uptake/accumulation in SR membranes (Ca2+-pump activity). The class given is biochemical, rabbit. The procedure:
as §2, §3
The preparation of SR membranes from skeletal muscle, and the measurement of Ca^2+-accumulation were carried out as described above.
The hexavalent RuR and the trivalent Ru360 have been employed in various studies as inhibitors of Ca^2+-dependent reactions. As shown here, even with no photoactivation, AzRu, in contrast to RuR and Ru360, was effective in inhibiting the SR Ca^2+-pump (Table 3). […] This may open the way to inhibit other Ca^2+-dependent activities that are not sensitive to RuR, such as the plasma membrane Ca^2+-ATPase. […] RuR was employed to improve mitochondrial production in ischemic reperfused pig myocardium, was employed in the nervous system to follow neuronal death progress and can act as an anti-oxidant in certain conditions. Considering the potent activity of AzRu in RuR-insensitive reactions (see Table 3), its applications in various biological studies should be explored. Ca^2+ accumulation in SR and mitochondria was assayed as described above in the absence and presence of different concentrations of RuR (0.05-100 μM), Ru360 (0.01-100 μM) or AzRu (0.1-100 μM). The concentration required for 50% inhibition (IC50) was derived from the plot of Ca^2+ accumulation activity or ryanodine binding as a function of the reagent concentration. The results are the mean±SEM of 3 to 5 experiments (Table 3).

Assay [12] deals with T4, Pyruvate kinase (Oryctolagus cuniculus, UniProt P11974).
T4 construct: purchased Sigma
T4 sequence (P11974 2-531 limits assumed): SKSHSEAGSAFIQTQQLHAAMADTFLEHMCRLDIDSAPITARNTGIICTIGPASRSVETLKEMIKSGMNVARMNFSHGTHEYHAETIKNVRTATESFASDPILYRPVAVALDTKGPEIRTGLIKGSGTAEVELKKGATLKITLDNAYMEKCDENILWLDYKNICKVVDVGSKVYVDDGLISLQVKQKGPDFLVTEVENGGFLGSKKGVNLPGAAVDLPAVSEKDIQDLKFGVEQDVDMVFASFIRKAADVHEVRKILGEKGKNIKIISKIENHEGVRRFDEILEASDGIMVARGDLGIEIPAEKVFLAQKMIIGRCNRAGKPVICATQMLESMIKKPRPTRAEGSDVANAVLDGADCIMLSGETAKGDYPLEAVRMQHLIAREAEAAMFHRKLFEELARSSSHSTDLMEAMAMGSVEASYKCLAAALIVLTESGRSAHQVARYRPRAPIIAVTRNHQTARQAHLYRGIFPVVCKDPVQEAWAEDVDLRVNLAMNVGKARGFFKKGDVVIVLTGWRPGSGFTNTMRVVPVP
In words: Pyruvate kinase activity. The class given is biochemical. To be noted: mean ± SEM.
From the text: as §1

The test system of assay [13] is Ca2+-dependent mitochondrial swelling (PTP opening). Briefly: Ca2+-dependent mitochondrial swelling (PTP opening). The settings on record: AzRu 20 μM; PTP opening was completely inhibited at this concentration. The class given is biochemical, rat. The procedure: as §2

T2 sequence (P00433 31-338): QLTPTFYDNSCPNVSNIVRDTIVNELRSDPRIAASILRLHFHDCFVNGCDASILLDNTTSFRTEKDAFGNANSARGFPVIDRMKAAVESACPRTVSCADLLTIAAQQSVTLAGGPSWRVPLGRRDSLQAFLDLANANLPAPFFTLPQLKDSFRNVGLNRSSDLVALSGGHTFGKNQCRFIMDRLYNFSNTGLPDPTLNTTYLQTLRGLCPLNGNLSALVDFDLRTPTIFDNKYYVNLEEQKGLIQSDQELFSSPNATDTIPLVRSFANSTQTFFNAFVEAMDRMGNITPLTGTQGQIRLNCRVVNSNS

As usually defined, the IC50 is the concentration that gives 50% inhibition. High values mean weaker potency, low ones greater potency. Take azido-ruthenium [AzRu]: in assay [1], the “Activity (% of control), Glutamate dehydrogenase” value was 101 ± 5 % of control. The “Activity (% of control), GAP dehydrogenase” value in assay [2] is given as 102 ± 5 % of control. For the same substance, the “Inhibition of activities of Ca2+-dependent proteins” value in assay [3] is on record as “up to 90%”. For the same substance, in assay [4], the “Activity (% of control), Alkaline phosphatase” value was 86 ± 5 % of control. For the same substance, the “Activity (% of control), Succinate-cytochrome c oxido-reductase” value in assay [5] (AzRu 100 μM, mean ± SEM) is reported as 95 ± 5 % of control. The “Effect on electron transfer from succinate to cytochrome c in mitochondria” value in assay [5] (isolated mitochondria, FIG. 7) was “not affected”. Moreover, the “Activity (% of control), Lactate dehydrogenase” value in [6] is given as 91 ± 4 % of control. Further, in assay [7], the “Activity (% of control), Aldolase” value was 78 ± 7 % of control. The “Inhibition of activities of Mg2+-dependent proteins and Zn2+-sensitive KCNK0 channel” value in [8] is listed as approximately 30%. Moreover, in assay [9], the “Activity (% of control), K+ channel (KCKN0)” value is reported as 100 ± 0.3 % of control. For the same substance, in assay [10], the “Activity (% of control), Peroxidase” value is given as 39 ± 4 % of control. Moreover, the IC50 in [11] (+UV (photoactivation), mean ± SEM) is 1010 ± 95 nM; in [11] (no photoactivation, mean ± SEM of 3 to 5 experiments), 4910 ± 55 nM. In addition, the “Activity (% of control), Ca2+ uptake in SR (SERCA)” value in assay [11] (AzRu 20 μM, mean ± SEM of 3 to 6 experiments) is listed as 13 ± 6 % of control. Further, the “Change of sensitivity of the Ca2+-pump activity to the reagent by photoactivation” value in assay [11] (UV irradiation, SR membranes) was “increased more than two-fold”. In addition, the “Activity (% of control), Pyruvate kinase” value in assay [12] (AzRu 20 μM) is 97 ± 7 % of control; in assay [12] (AzRu 100 μM), 81 ± 6 % of control. Further, the “Activity (% of control), Ca2+-dependent mitochondrial swelling” value in assay [13] is 0 % of control.
